Source: patent publication US8084502B2, “Use of agmatine for protection of retinal ganglion cells” (priority 2007, dated 2011)
Where a SMILES comes first, the peptide text is derived from it. The star is where a group is joined. Cbz = O=C(OCc1ccccc1)*; CH2F = FC*

Columns and labels:
caspase-3 = assay: Caspase-3 activity (colorimetric, Ac-DEVD-pNA cleavage) after hypoxia; assay type: cell-based, rat; details: hypoxia 24 hours; 100 μM of agmatine or 50 μM of Z-VAD-FMK
Protocol: The RGC-5 cell line, which is a RGC line developed from post-natal Sprague-Dawley rats, was grown in modified Dulbecco's Modified Eagle's Medium (DMEM; Gibco) supplemented with 10% of heat inactivated fetal bovine serum (Gibco) and 100 U/mL of penicillin and 100 μg/mL of streptomycin (Gibco). The cells were passaged every 2 to 3 days, and the cultures incubated at 37° C. in 5% of CO2 and air. […] For all experiments, cells were used at an 80% confluence. Cultures were transferred into a closed hypoxic chamber (Form a Scientific Co.) in which oxygen level (5% of O2, 5% of CO2, 90% of N2) and temperature (37° C.) were controlled. After washing twice with deoxygenated serum-free DMEM, cells were maintained in the hypoxic chamber. Control cells were not exposed to hypoxia. Agmatine or BDNF were added to the culture medium at the start of injury as indicated. Caspase-3 activity was measured using the CaspACE™ colorimetric assay system (Promega, Cat no. G7220) according to the manufacturer's instructions. Briefly, cells were harvested and resuspended in cell lysis buffer (10^8 cells/mL). […] After incubating at 37° C. for 4 hours, absorbance was measured using a microplate reader at 405 nm. Absorbance of each sample was determined by subtraction of the mean absorbance of the blank from that of each sample.

RGC-5 = assay: LDH assay, TNF-α-induced cell death; assay type: cell-based, rat
Protocol: The RGC-5 cell line, which is an RGC line developed from post-natal Sprague-Dawley rats, was grown in modified DMEM (Gibco) supplemented with 10% of heat inactivated fetal bovine serum (Gibco) and 100 U/mL of penicillin and 100 μg/mL of streptomycin (Gibco). The cells were passaged every 2 to 3 days and incubated at 37° C. in 5% of CO2 and air. At cultivation, the cells had the same morphology. For all experiments, cells were used at 80% of confluence.
After washing twice with PBS, cells were cultured in serum-free DMEM and treated with either 10 or 50 ng/mL of recombinant rat TNF-α (Chemicon) for up to 48 hours. The control cells were not exposed to TNF-α. 100 μM of agmatine was added to the culture medium at the start of injury as indicated.
Cell viability was quantified by measuring the amounts of LDH released from the injured cells after TNF-α administration. LDH release is expressed as a value relative to the value of 100, which is the maximum LDH release that occurs after freezing each culture at −70° C. overnight and then rapidly thawing, thus inducing nearly complete cell damage. All experiments were performed in at least quadruplicate, and repeated at least eight times using cell cultures derived from different platings.

hypoxia-induced caspase-3 activity (caspase-3)	Compound	LDH release (RGC-5; 10 ng/mL of TNF-α alone, 24 hours)	LDH release (RGC-5; 10 ng/mL of TNF-α alone, 48 hours)	LDH release (RGC-5; 50 ng/mL of TNF-α alone, 24 hours)	LDH release (RGC-5; 50 ng/mL of TNF-α alone, 48 hours)
equally suppressed	COC(=O)C[C@H](NC(=O)[C@H](C)NC(=O)[C@@H](NC(=O)OCc1ccccc1)C(C)C)C(=O)CF [Z-VAD-FMK, reference compound] (Cbz-Val-Ala-Asp(OMe)-CH2F)				
	TNF-α	7.04±3.26%	10.16±1.77%	13.41±6.20%	17.00±1.92%
